According to patent US12612409B2, “Pyrrolopyrimidines as CFTR potentiators” (Cystic Fibrosis Foundation, priority 2016, dated 2026):

Columns and labels:
[1] = target: T1, recombinant F508del V470 CFTR in Fischer rat thyroid (FRT) cells (Homo sapiens, UniProt P13569, DEL508-508); assay: FRT ion flux assay of F508del CFTR potentiation; type: cell-based; settings: FRT cells expressing F508del V470 CFTR, forskolin 20 uM, 27° C. pre-incubation
T1 construct: expressed in transfected cells
Description: FRT Ion Flux Assay of F508del CFTR Potentiation
Fischer rat thyroid (FRT) cell lines stably expressing recombinant F508del V470 CFTR and halide-sensitive yellow fluorescent protein (Pedemonte et al., J. Clin. Invest. 115(9) 2564-71 (2005)) were seeded at 25,000 cells/well in 50 uL/well of culture medium into black-walled, clear bottom tissue-culture-treated 384-well plates (Corning, cat. no. 3712). After one day, the cells were pre-incubated at 27° C./5% CO2 for 16-24 hours. The cells were then washed with dPBS and treated with forskolin (20 uM) and test compound for 30 mi by addition of 20 uL of compound dilution buffer (dPBS containing forskolin and test compound). Plates were loaded into FLIPR384 fluorescence imaging plate reader (Molecular Devices). After an initial fluorescence reading, iodide buffer (25 uL) (composition (in mM): 137 NaI, 1.5 K2PO4, 8.1 NaH2PO4, 2.7 KCl, 0.5 MgCl2, 1 CaCl2) was added and a second fluorescence reading was made after approximately 21 seconds. Data treatment involved division of the second fluorescence reading by the initial fluorescence reading, then scaling of the resulting normalized endpoint fluorescence with respect to the responses for DMSO (0%) and a positive control potentiator (100%).

[2] = target: T2, CFTR in F508del/F508del primary CF hBE cells (Homo sapiens, UniProt P13569, DEL508-508); assay: Ussing chamber electrophysiology assay of CFTR potentiation in F508del/F508del CF bronchial epithelial cells (27° C.); type: cell-based
T2 construct: Primary cystic fibrosis human bronchial epithelial (CF hBE) cells were expanded and cultured; endogenous in cells; host or cells: primary CF human bronchial epithelial cells, genotype F508del/F508del
T2 sequence (P13569 with tags, fused parts or gaps DEL508-508): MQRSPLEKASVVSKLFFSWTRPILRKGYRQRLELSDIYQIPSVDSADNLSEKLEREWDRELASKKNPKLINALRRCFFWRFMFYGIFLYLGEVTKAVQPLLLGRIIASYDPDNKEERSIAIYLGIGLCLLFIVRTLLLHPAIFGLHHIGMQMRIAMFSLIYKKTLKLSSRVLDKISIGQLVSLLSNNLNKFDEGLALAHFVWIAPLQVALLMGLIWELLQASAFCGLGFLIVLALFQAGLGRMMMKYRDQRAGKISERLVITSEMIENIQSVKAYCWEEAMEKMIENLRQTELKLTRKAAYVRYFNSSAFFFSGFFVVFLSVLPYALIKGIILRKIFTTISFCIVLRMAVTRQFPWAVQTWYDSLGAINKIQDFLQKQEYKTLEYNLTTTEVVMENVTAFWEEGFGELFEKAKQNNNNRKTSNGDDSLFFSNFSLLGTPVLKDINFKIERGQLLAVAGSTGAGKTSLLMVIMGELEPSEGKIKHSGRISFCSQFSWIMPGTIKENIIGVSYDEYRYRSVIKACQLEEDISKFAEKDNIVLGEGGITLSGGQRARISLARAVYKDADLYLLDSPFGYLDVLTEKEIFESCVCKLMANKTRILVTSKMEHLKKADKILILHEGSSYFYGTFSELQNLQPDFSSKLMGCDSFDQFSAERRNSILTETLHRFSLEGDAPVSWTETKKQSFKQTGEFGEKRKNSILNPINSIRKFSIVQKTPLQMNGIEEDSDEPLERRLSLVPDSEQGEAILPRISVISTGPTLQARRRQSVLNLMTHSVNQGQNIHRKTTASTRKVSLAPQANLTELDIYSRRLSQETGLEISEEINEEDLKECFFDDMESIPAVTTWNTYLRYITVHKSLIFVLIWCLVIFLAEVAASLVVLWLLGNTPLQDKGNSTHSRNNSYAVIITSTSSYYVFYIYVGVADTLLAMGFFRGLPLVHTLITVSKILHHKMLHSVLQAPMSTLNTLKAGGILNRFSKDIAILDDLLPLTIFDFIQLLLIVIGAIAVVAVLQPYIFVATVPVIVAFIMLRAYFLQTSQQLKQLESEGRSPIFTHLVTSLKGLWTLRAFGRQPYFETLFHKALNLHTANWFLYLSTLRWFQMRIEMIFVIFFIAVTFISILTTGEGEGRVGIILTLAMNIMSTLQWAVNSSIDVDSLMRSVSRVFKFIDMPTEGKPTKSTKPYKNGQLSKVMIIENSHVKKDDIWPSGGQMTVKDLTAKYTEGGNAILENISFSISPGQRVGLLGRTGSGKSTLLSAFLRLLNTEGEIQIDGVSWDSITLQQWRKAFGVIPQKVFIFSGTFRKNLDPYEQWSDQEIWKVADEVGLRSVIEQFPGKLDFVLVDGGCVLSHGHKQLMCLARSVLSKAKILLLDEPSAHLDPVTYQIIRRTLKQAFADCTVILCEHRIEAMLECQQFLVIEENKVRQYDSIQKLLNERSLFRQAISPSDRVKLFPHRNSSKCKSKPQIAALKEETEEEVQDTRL
Description: • SHELXTL, Version 5.1, Bruker AXS, 1997. • PLATON, A. L. Spek, J. Appl. Cryst. 2003, 36, 7-13. • MERCURY, C. F. Macrae, P. R. Edington, P. McCabe, E. Pidcock, G. P. Shields, R. Taylor, M. Towler and J. van de Streek, J. Appl. Cryst. 39, 453-457, 2006. • OLEX2, Dolomanov, O. V.; Bourhis, L. J.; Gildea, R. J.; Howard, J. A. K.; Puschmann, H., (2009). J. Appl. Cryst., 42, 339-341. • R. W. W. Hooft et al. J. Appl. Cryst. (2008). 41. 96-103. • H. D. Flack, Acta Cryst. 1983, A39, 867-881. Using Chamber Electrophysiology Assay of CFTR Potentiation in CF Bronchial Epithelial Cells
Primary cystic fibrosis human bronchial epithelial (CF hBE) cells were expanded and cultured according to published methods (Neuberger et al., Ch. 4 of Cystic Fibrosis, Methods in Molecular Biology vol. 741, pp. 39-54 (2011)). Well-differentiated cells (>30 days at air/liquid interface) on Snapwell filters (Corning Costar, cat. no. 3801) were mounted in Ussing chambers (Physiologic Instruments, Inc., San Diego, CA). […] HEPES buffered physiological saline (composition (in mM): 137 NaCl, 4 KCl, 1 MgCl2, 1.8 CaCl2), 10 HEPES Na) was used in both apical and basolateral chambers. Chambers were bubbled with air to promote mixing and the voltage was clamped to zero. Amiloride (30 uM), forskolin (10 uM), test compound (4 increasing concentrations), and CFTRinh-172 (20 uM) were added sequentially with 20-25 minutes between additions. Short-circuit currents were acquired and analyzed using LabScribe2. Test compound responses were scaled relative to responses for DMSO (0%) and the maximal response of a positive control potentiator (100%).

T1 sequence (P13569 with tags, fused parts or gaps DEL508-508): as above

SMILES | EC50 [1] [nM] | EC50 [2] [nM]
CC(c1cnn(-c2ccccc2F)c1)n1c(C#N)c(-c2cnc(C(F)F)nc2)c2c(N)ncnc21 (single isomer, unassigned) [Example 1, 4-Amino-5-[2-(difluoromethyl)pyrimidin-5-yl]-7-{1-[1-(2-fluorophenyl)-1H-pyrazol-4-yl]ethyl}-7H-pyrrolo[2,3-d]pyrimidine-6-carbonitrile] | 0.55 | 1.66
CC(c1cnn(-c2ccccc2F)c1)n1c(C#N)c(-c2cnc(C(F)F)nc2)c2c(N)ncnc21 (single isomer, unassigned) [Example 2, 4-Amino-5-[2-(difluoromethyl)pyrimidin-5-yl]-7-{1-[1-(2-fluorophenyl)-1H-pyrazol-4-yl]ethyl}-7H-pyrrolo[2,3-d]pyrimidine-6-carbonitrile] | 7.51 | 8.77
CCC(c1cnn(-c2ccccc2F)c1)n1c(C#N)c(-c2cnc(C(F)(F)F)nc2)c2c(N)ncnc21 (single isomer, unassigned) [Example 3, 4-Amino-7-{1-[1-(2-fluorophenyl)-1H-pyrazol-4-yl]propyl}-5-[2-(trifluoromethyl)pyrimidin-5-yl]-7H-pyrrolo[2,3-d] pyrimidine-6-carbonitrile] | 9.17 | 3.36
CCC(c1cnn(-c2ccccc2F)c1)n1c(C#N)c(-c2cnc(C(F)(F)F)nc2)c2c(N)ncnc21 (single isomer, unassigned) [Example 4, 4-Amino-7-{1-[1-(2-fluorophenyl)-1H-pyrazol-4-yl]propyl}-5-[2-(trifluoromethyl)pyrimidin-5-yl]-7H-pyrrolo[2,3-d] pyrimidine-6-carbonitrile] | 0.61 | 0.56
CC(c1cnn(-c2ccccc2F)c1)n1c(C#N)c(-c2cnc(C(F)(F)F)nc2)c2c(N)ncnc21 (single isomer, unassigned) [Example 5, 4-Amino-7-(1-(1-(2-fluorophenyl)-1H-pyrazol-4-yl)ethyl)-5-(2-(trifluoromethyl)pyrimidin-5-yl)-7H-pyrrolo[2,3-d] pyrimidine-6-carbonitrile] | 7.69 | 7.73
CC(c1cnn(-c2ccccc2F)c1)n1c(C#N)c(-c2cnc(C(F)(F)F)nc2)c2c(N)ncnc21 (single isomer, unassigned) [Example 6, 4-Amino-7-(1-(1-(2-fluorophenyl)-1H-pyrazol-4-yl)ethyl)-5-(2-(trifluoromethyl)pyrimidin-5-yl)-7H-pyrrolo[2,3-d] pyrimidine-6-carbonitrile] | 1.01 | 1.19
CC(c1cnn(-c2ccc(F)cc2F)c1)n1c(C#N)c(-c2cnc(C(F)(F)F)nc2)c2c(N)ncnc21 (single isomer, unassigned) [Example 7, 4-Amino-7-{1-[1-(2,4-difluorophenyl)-1H-pyrazol-4-yl]ethyl}-5-[2-(trifluoromethyl)pyrimidin-5-yl]-7H-pyrrolo[2,3-d] pyrimidine-6-carbonitrile] | 2.76 | 1.84
CC(c1cnn(-c2ccc(F)cc2F)c1)n1c(C#N)c(-c2cnc(C(F)(F)F)nc2)c2c(N)ncnc21 (single isomer, unassigned) [Example 8, 4-Amino-7-{1-[1-(2,4-difluorophenyl)-1H-pyrazol-4-yl]ethyl}-5-[2-(trifluoromethyl)pyrimidin-5-yl]-7H-pyrrolo[2,3-d] pyrimidine-6-carbonitrile] | 35.2 | 15.5
CC(c1cn(-c2ccccc2F)nn1)n1c(C#N)c(-c2cnc(C(F)(F)F)nc2)c2c(N)ncnc21 (single isomer, unassigned) [Example 9, 4-amino-7-{1-[1-(2-fluorophenyl)-1H-1,2,3-triazol-4-yl]ethyl}-5-[2-(trifluoromethyl)pyrimidin-5-yl]-7H-pyrrolo[2,3-d] pyrimidine-6-carbonitrile] | 12.2 | 20.4
CC(c1cc(-c2ccccc2F)no1)n1cc(-c2ccnc3[nH]ccc23)c2c(N)ncnc21 (stereo not shown) [Example 103, 7-{1-[3-(2-Fluorophenyl)-1,2-oxazol-5-yl]ethyl}-5-(1H-pyrrolo[2,3-b]pyridin-4-yl)-7H-pyrrolo[2,3-d]pyrimidin-4-amine] | 5150 | 
CC(c1cc(-c2ccccc2F)no1)n1cc(-c2ccc3nonc3c2)c2c(N)ncnc21 (stereo not shown) [Example 104, 5-(2,1,3-Benzoxadiazol-5-yl)-7-{1-[3-(2-fluorophenyl)-1,2-oxazol-5-yl]ethyl}-7H-pyrrolo[2,3-d]pyrimidin-4-amine] | 331 | 
CC(c1cc(-c2ccccc2F)no1)n1cc(-c2cc3cnccc3s2)c2c(N)ncnc21 (stereo not shown) [Example 106, 7-{1-[3-(2-Fluorophenyl)-1,2-oxazol-5-yl]ethyl}-5-(thieno[3,2-c]pyridin-2-yl)-7H-pyrrolo[2,3-d]pyrimidin-4-amine] | 2080 | 
CCC(c1cn(-c2ccc(F)c(F)c2)nn1)n1cc(-c2cncnc2OC)c2c(N)ncnc21 (stereo not shown) [Example 245, 7-{1-[1-(3,4-Difluorophenyl)-1H-1,2,3-triazol-4-yl]propyl}-5-[4-methoxypyrimidin-5-yl]-7H-pyrrolo[2,3-d] pyrimidin-4-amine] | 42.4 | 
CCC(c1cn(-c2ccc(F)cc2F)nn1)n1cc(-c2cncnc2OC)c2c(N)ncnc21 (stereo not shown) [Example 246, 7-{1-[1-(2,4-Difluorophenyl)-1H-1,2,3-triazol-4-yl]propyl}-5-[4-methoxypyrimidin-5-yl]-7H-pyrrolo[2,3-d] pyrimidin-4-amine] | 17.2 | 
CC(c1cn(-c2ccccc2F)nn1)n1cc(C2COC2)c2c(N)ncnc21 (stereo not shown) [Example 250, 7-{1-[1-(2-Fluorophenyl)-1H-1,2,3-triazol-4-yl]ethyl}-5-(oxetan-3-yl)-7H-pyrrolo[2,3-d] pyrimidin-4-amine] | 2200 | 
CCC(c1cn(-c2ccccc2F)nn1)n1cc(-c2nccnc2OC)c2c(N)ncnc21 (stereo not shown) [Example 251, 7-{1-[1-(2-Fluorophenyl)-1H-1,2,3-triazol-4-yl]propyl}-5-(3-methoxypyrazin-2-yl)-7H-pyrrolo [2,3-d]pyrimidin-4-amine] | 5.41 | 
Nc1ncnc2c1c(-c1ccc(Cl)cc1)cn2Cc1cn(-c2ccccc2F)cn1 [Example 265, 5-(4-Chlorophenyl)-7-{[1-(2-fluorophenyl)-1H-imidazol-4-yl]methyl}-7H-pyrrolo[2,3-d]pyrimidin-4-amine] | 3880 | 
Nc1ncnc2c1c(-c1ccc(Cl)cc1)cn2Cc1cn(C2CCCC2)nn1 [Example 281, 5-(4-Chlorophenyl)-7-[(1-cyclopentyl-1H-1,2,3-triazol-4-yl)methyl]-7H-pyrrolo[2,3-d]pyrimidin-4-amine] | 170 | 
Nc1ncnc2c1c(-c1ccc(Cl)cc1)cn2Cc1nnc(-c2ccccc2)[nH]1 [Example 284, 5-(4-Chlorophenyl)-7-[(5-phenyl-4H-1,2,4-triazol-3-yl)methyl]-7H-pyrrolo[2,3-d]pyrimidin-4-amine] |  | 551
Nc1ncnc2c1c(C1CN(C(=O)C3CC3)C1)cn2Cc1cn(-c2ccccc2F)nn1 [Example 292, [3-(4-Amino-7-{[1-(2-fluorophenyl)-1H-1,2,3-triazol-4-yl]methyl}-7H-pyrrolo[2,3-d]pyrimidin-5-yl)azetidin-1-yl](cyclopropyl) methanone] | 3210 | 
Nc1ncnc2c1c(C1CN(S(=O)(=O)CC3CC3)C1)cn2Cc1cn(-c2ccccc2F)nn1 [Example 293, 5-{1-[(Cyclopropylmethyl)sulfonyl]azetidin-3-yl}-7-{[1-(2-fluorophenyl)-1H-1,2,3-triazol-4-yl]methyl}-7H-pyrrolo[2,3-d]pyrimidin-4-amine] | 1890 | 
Nc1ncnc2c1c(-c1ccc(Cl)cc1)c(Br)n2Cc1cn(-c2cccc(F)c2)nn1 [Example 319, 6-Bromo-5-(4-chlorophenyl)-7-{[1-(3-fluorophenyl)-1H-1,2,3-triazol-4-yl]methyl}-7H-pyrrolo[2,3-d]pyrimidin-4-amine] | 194 | 
